# Key:
# [1] = system: SKOV3 human ovary cancer cells; assay: Therapeutic efficacy in vivo against SKOV3 tumors in Nu/Nu mice
# Procedure: The therapeutic efficacy of the Pt (II) complex against cancer was examined in vivo according to the following procedure, the results of which can be seen both in Table III and in graphical form in FIG. 4. To develop orthotropic tumors, 30 Nu/Nu female mice, each weighing approximately 20 g (Charles River Laboratories, Cambridge, Mass.), were injected intraperitoneally (ip) with 1×10^6 SKOV3 human ovary cancer cells (American Type Culture Collection (ATCC), Manassas, Va.) suspended in phosphate buffered saline. Animals were then dosed with nothing (control group) or test compounds. […] Cisplatin was administered to mice as a comparative sample and its effectiveness was also examined. The doses of Pt-MMA (21 mg/kg) and cis-Platin (5 mg/kg) were calculated so that animals received equivalent amounts of Pt. Dosing began 39 days after tumor injection in cells when the tumors had reached a volume of 150 mm^3-200 mm^3 measured with a ruler.
# Control or platinum compound treatment was administered on the 39th, 46th, 53th, 60th, and 66th day after initial tumor injections. The survival time of each group of mice was determined and the median survival time (days) was estimated on the basis of the observed survival time of each mouse. The therapeutic effectiveness of the Pt (II) complex is represented by the median survival significance compared to control (P-Value).
# [2] = Storage stability of nanoemulsion formulations; type: physicochemical; conditions: concentration up to 5 mg/ml, at both 4° C. and room temperature
# Procedure: The poor […] of these compounds is due to the presence of a di-fatty acid structure, which causes them to be too hydrophobic. […] Nanoemulsion formulations prepared with a concentration of up to 5 mg/ml of cisplatin mono-myristate, cisplatin mono-palmitate, and cisplatin mono-stearate were stable at both 4° C. and room temperature for approximately 3 months.
# [3] = cisplatin 5 mg/kg, Pt-MMA 21 mg/kg
compound,measurement,setting,value
"N.N.[Cl][Pt][Cl] [Cisplatin, Cis-dichlorodiammine Pt (II)]",median survival compared to control group (in words),[1],not significantly improved
same,Average Tumor Size at 21 Days,"[1]; 21 days, cisplatin 5 mg/kg, Pt-MMA 21 mg/kg",640 ± 314 mm^3
same,Average Tumor Starting Size,[1]; at start of dosing (day 39 after tumor injection),171 ± 43 mm^3
same,Median Survival,[1]; [3],28 days
same,Time for First Tumor to Reach 1000 mm^3,[1]; [3],17 days
same,Median Survival Significance Compared to Control (P-Value),[1]; compared to control group,0.0606
cis-Diamine Pt (II) Chloride Monostearic Acid [Cisplatin-mono stearate],Time nanoemulsion formulations were stable,[2],approximately 3 months
cis-Diamine Pt (II) Chloride Monopalmitic Acid [Cisplatin-mono palmitate],Time nanoemulsion formulations were stable,[2],approximately 3 months
"CCCCCCCCCCCCCC(=O)[O][Pt]([NH2])([NH2])[Cl] [Cisplatin-mono myristate, cis-Diamine Pt (II) Chloride Monomyristic Acid]",Time nanoemulsion formulations were stable,[2],approximately 3 months

# Reference: patent publication US20160185808A1, “PLATINUM DERIVATIVES FOR HYDROPHOBIC FORMULATIONS” (priority 2013, published 2016)
